From PubChem BioAssay (NCI)
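Tested at 5 concentrations; 48 h exposure; 96-well plates; endpoints linearly interpolated, else capped at highest concentration. TGI is the concentration that stops growth completely.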

Assays:
Assay in all cases: NCI tumour cell line growth inhibition, 48 h
[1] = test system: MOLT-4 leukemia
[2] = test system: LXFL 529 NSCLC
[3] = test system: OVCAR-8 ovarian
[4] = test system: SF-539 CNS
[5] = test system: SK-MEL-5 melanoma
[6] = test system: SNB-78 CNS
[7] = test system: UO-31 renal
[8] = test system: NCI-H23 lung
[9] = test system: HOP-62 NSCLC
[10] = test system: SK-OV-3 ovarian
[11] = test system: SK-MEL-2 melanoma
[12] = test system: XF 498 CNS
[13] = test system: UACC-257 melanoma
[14] = test system: HT29 colon
[15] = test system: RXF-631 renal
[16] = test system: U251 CNS
[17] = test system: NCI-H460 lung
[18] = test system: SK-MEL-28 melanoma
[19] = test system: SF-268 CNS
[20] = test system: CCRF-CEM leukemia
[21] = test system: DMS 114 small cell lung
[22] = test system: RXF 393 renal
[23] = test system: COLO 205 colon
[24] = test system: UACC-62 melanoma
[25] = test system: SF-295 CNS
[26] = test system: KM20L2 colon
[27] = test system: DMS 273 small cell lung
[28] = test system: DLD-1 colon
[29] = test system: M14 melanoma
[30] = test system: MALME-3M melanoma
[31] = test system: NCI-H226 lung
[32] = test system: OVCAR-5 ovarian
[33] = test system: RPMI-8226 leukemia
[34] = test system: KM12 colon
[35] = test system: HL-60(TB) leukemia
[36] = test system: NCI-H522 lung
[37] = test system: TK-10 renal
[38] = test system: OVCAR-3 ovarian
[39] = test system: EKVX NSCLC
[40] = test system: K-562 leukemia
[41] = test system: IGROV1 ovarian
[42] = test system: M19-MEL melanoma
[43] = test system: HCC-2998 colon
[44] = test system: A498 renal
[45] = test system: A549 NSCLC
[46] = test system: SW-620 colon
[47] = test system: HCT-116 colon
[48] = test system: HOP-92 NSCLC
[49] = test system: LOX IMVI melanoma
[50] = test system: SNB-75 CNS
[51] = test system: 786-0 renal
[52] = test system: ACHN renal
[53] = test system: CAKI-1 renal
[54] = test system: HOP-18 NSCLC
[55] = test system: SN12C renal
[56] = test system: SNB-19 CNS
[57] = test system: SR leukemia
[58] = test system: HCT-15 colon
[59] = test system: OVCAR-4 ovarian

Work on C/C(CC(=O)Nc1ccc(C)cc1C)=N/N=C(N)N yielded a TGI [1] of over 100 µM, a TGI [2] of over 100 µM and a TGI [3] of over 100 µM. It also gave a TGI [4] of over 100 µM, a TGI [5] of over 100 µM and a TGI [6] of over 100 µM. The TGI [7] was over 100 µM, the TGI [8] was over 100 µM and the TGI [9] was over 100 µM. It also gave a TGI [10] of over 100 µM, a TGI [11] of over 100 µM and a TGI [12] of over 100 µM. The TGI [13] was over 100 µM, the TGI [14] was over 100 µM and the TGI [15] was over 100 µM. For the same compound, the TGI [16] was over 100 µM, the TGI [17] was over 100 µM and the TGI [18] was over 100 µM. It also gave a TGI [19] of over 100 µM, a TGI [20] of over 100 µM and a TGI [21] of over 100 µM. It also gave a TGI [22] of over 100 µM, a TGI [23] of over 100 µM and a TGI [24] of over 100 µM. The TGI [25] was over 100 µM, the TGI [26] was over 100 µM and the TGI [27] was over 100 µM. It also gave a TGI [28] of over 100 µM, a TGI [29] of over 100 µM and a TGI [30] of over 100 µM. The TGI [31] was over 100 µM, the TGI [32] was over 100 µM and the TGI [33] was over 100 µM. For the same compound, the TGI [34] was over 100 µM, the TGI [35] was over 100 µM and the TGI [36] was over 100 µM. It also gave a TGI [37] of over 100 µM, a TGI [38] of over 100 µM and a TGI [39] of over 100 µM. For the same compound, the TGI [40] was over 100 µM, the TGI [41] was over 100 µM and the TGI [42] was over 100 µM. It also gave a TGI [43] of over 100 µM, a TGI [44] of over 100 µM and a TGI [45] of over 100 µM. It also gave a TGI [46] of over 100 µM, a TGI [47] of over 100 µM and a TGI [48] of over 100 µM. It also gave a TGI [49] of over 100 µM, a TGI [50] of over 100 µM and a TGI [51] of over 100 µM. For the same compound, the TGI [52] was over 100 µM.

NC(=O)C(=O)N/N=C(\CC1(O)C(=O)Nc2ccccc21)c1ccc2ccccc2c1 (stereo not drawn) showed a TGI [1] of 53.5 µM, a TGI [2] of over 100 µM and a TGI [3] of over 100 µM. The TGI [4] was over 100 µM, the TGI [5] was over 100 µM and the TGI [6] was over 100 µM. It also gave a TGI [7] of over 100 µM, a TGI [8] of 76.7 µM and a TGI [9] of over 100 µM. The TGI [10] was over 100 µM, the TGI [11] was 48.5 µM and the TGI [53] was over 100 µM. The TGI [12] was 51.3 µM, the TGI [13] was over 100 µM and the TGI [54] was over 100 µM. For the same compound, the TGI [55] was 60.5 µM, the TGI [14] was over 100 µM and the TGI [16] was 76.4 µM. For the same compound, the TGI [17] was over 100 µM, the TGI [18] was over 100 µM and the TGI [19] was over 100 µM. The TGI [20] was 48.5 µM, the TGI [21] was 55.4 µM and the TGI [22] was 41.2 µM. For the same compound, the TGI [23] was 41.1 µM, the TGI [24] was 77.9 µM and the TGI [25] was over 100 µM. For the same compound, the TGI [27] was 80.5 µM, the TGI [56] was over 100 µM and the TGI [28] was over 100 µM. For the same compound, the TGI [29] was over 100 µM, the TGI [30] was over 100 µM and the TGI [31] was over 100 µM. For the same compound, the TGI [32] was over 100 µM, the TGI [33] was 86.3 µM and the TGI [34] was 58.7 µM. For the same compound, the TGI [35] was 36.5 µM, the TGI [57] was 44.5 µM and the TGI [36] was 41.6 µM. It also gave a TGI [37] of over 100 µM, a TGI [38] of 67.3 µM and a TGI [39] of over 100 µM. It also gave a TGI [40] of 61.7 µM, a TGI [41] of over 100 µM and a TGI [42] of 65.6 µM. The TGI [43] was 87.9 µM, the TGI [44] was 82.1 µM and the TGI [45] was 43.9 µM. For the same compound, the TGI [46] was over 100 µM, the TGI [47] was 21.2 µM and the TGI [48] was 87.8 µM. It also gave a TGI [49] of 85.5 µM, a TGI [50] of over 100 µM and a TGI [58] of over 100 µM. For the same compound, the TGI [51] was over 100 µM, the TGI [52] was over 100 µM and the TGI [59] was over 100 µM.

CC(C)(C)C1CCC2(CC1)c1[nH]c3ccccc3c1C1(CCC(C(C)(C)C)CC1)c1[nH]c3ccccc3c12 (stereo not drawn) gave a TGI [1] of over 100 µM, a TGI [2] of over 100 µM and a TGI [3] of over 100 µM. For the same compound, the TGI [4] was over 100 µM, the TGI [5] was over 100 µM and the TGI [6] was over 100 µM. It also gave a TGI [7] of over 100 µM, a TGI [8] of over 100 µM and a TGI [9] of over 100 µM. For the same compound, the TGI [10] was over 100 µM, the TGI [11] was over 100 µM and the TGI [53] was over 100 µM. For the same compound, the TGI [12] was over 100 µM, the TGI [13] was over 100 µM and the TGI [54] was over 100 µM. It also gave a TGI [55] of over 100 µM, a TGI [14] of over 100 µM and a TGI [16] of over 100 µM. It also gave a TGI [17] of over 100 µM, a TGI [18] of over 100 µM and a TGI [19] of over 100 µM. It also gave a TGI [20] of over 100 µM, a TGI [21] of 57.3 µM and a TGI [22] of over 100 µM. For the same compound, the TGI [23] was over 100 µM, the TGI [24] was over 100 µM and the TGI [25] was over 100 µM. For the same compound, the TGI [26] was over 100 µM, the TGI [27] was over 100 µM and the TGI [56] was over 100 µM. The TGI [28] was over 100 µM, the TGI [29] was over 100 µM and the TGI [30] was over 100 µM. For the same compound, the TGI [31] was over 100 µM, the TGI [32] was over 100 µM and the TGI [33] was over 100 µM. The TGI [34] was over 100 µM, the TGI [35] was over 100 µM and the TGI [36] was over 100 µM. It also gave a TGI [37] of over 100 µM, a TGI [39] of over 100 µM and a TGI [40] of over 100 µM. The TGI [41] was over 100 µM, the TGI [42] was over 100 µM and the TGI [43] was over 100 µM. For the same compound, the TGI [44] was over 100 µM, the TGI [45] was over 100 µM and the TGI [46] was over 100 µM. It also gave a TGI [47] of over 100 µM, a TGI [48] of over 100 µM and a TGI [49] of over 100 µM. The TGI [50] was over 100 µM, the TGI [58] was over 100 µM and the TGI [51] was over 100 µM. For the same compound, the TGI [52] was over 100 µM and the TGI [59] was over 100 µM.

With COc1ccc(C2=CC3CCC2C3)cc1 (stereo not drawn) the TGI [1] was over 100 µM, the TGI [2] was over 100 µM and the TGI [3] was over 100 µM. The TGI [4] was over 100 µM, the TGI [5] was over 100 µM and the TGI [6] was over 100 µM. The TGI [7] was over 100 µM, the TGI [8] was over 100 µM and the TGI [9] was over 100 µM. For the same compound, the TGI [10] was over 100 µM, the TGI [11] was over 100 µM and the TGI [53] was over 100 µM. The TGI [12] was over 100 µM, the TGI [13] was over 100 µM and the TGI [54] was over 100 µM. For the same compound, the TGI [55] was over 100 µM, the TGI [14] was over 100 µM and the TGI [16] was over 100 µM. It also gave a TGI [17] of over 100 µM, a TGI [18] of over 100 µM and a TGI [19] of over 100 µM. It also gave a TGI [20] of over 100 µM, a TGI [22] of over 100 µM and a TGI [23] of over 100 µM. The TGI [24] was over 100 µM, the TGI [25] was over 100 µM and the TGI [27] was over 100 µM. It also gave a TGI [56] of over 100 µM, a TGI [28] of over 100 µM and a TGI [29] of over 100 µM. The TGI [30] was over 100 µM, the TGI [32] was over 100 µM and the TGI [33] was over 100 µM. For the same compound, the TGI [34] was over 100 µM, the TGI [35] was over 100 µM and the TGI [57] was over 100 µM. The TGI [36] was over 100 µM, the TGI [37] was over 100 µM and the TGI [38] was over 100 µM. It also gave a TGI [39] of over 100 µM, a TGI [40] of over 100 µM and a TGI [41] of over 100 µM. The TGI [44] was over 100 µM, the TGI [45] was over 100 µM and the TGI [46] was over 100 µM. The TGI [47] was over 100 µM, the TGI [48] was over 100 µM and the TGI [49] was over 100 µM. For the same compound, the TGI [50] was over 100 µM, the TGI [58] was over 100 µM and the TGI [51] was over 100 µM. The TGI [52] was over 100 µM and the TGI [59] was over 100 µM.
